Measurements: article PMC5218480 (PLoS ONE, 2017)

System: MV-4-11 cells
Assay: Gene expression microarray analysis (Affymetrix PrimeView) and GSEA
Type: cell-based, human
Design: RFU PODN (11730768_x_at) / Fold change /veh PODN (11730768_x_at) / RFU LINC00158 (11744669_a_at) / Fold change /veh LINC00158 (11744669_a_at) / RFU DUSP10 (11751237_a_at) / Fold change /veh DUSP10 (11751237_a_at) / RFU ID3 (11757404_x_at) / Fold change /veh ID3 (11757404_x_at) / RFU PLEKHG5 (11737974_s_at) / Fold change /veh PLEKHG5 (11737974_s_at) / RFU LRRC4B (11730491_at) / Fold change /veh LRRC4B (11730491_at) / RFU GIMAP4 (11747438_a_at) / Fold change /veh GIMAP4 (11747438_a_at) / RFU KRT8 (11758183_x_at) / Fold change /veh KRT8 (11758183_x_at) / RFU CNN1 (11734310_a_at) / Fold change /veh CNN1 (11734310_a_at) / RFU VPS37D (11726825_at) / Fold change /veh VPS37D (11726825_at) / RFU C10orf10 (11716522_x_at) / Fold change /veh C10orf10 (11716522_x_at) / RFU KIR2DL2 /// KIR2DL4 /// KIR2DL5A /// KIR2DL5B /// KIR2DS1 /// KIR2DS2 /// KIR2DS3 /// KIR2DS4 /// KIR3DL3 /// KIR3DL3 /// KIR3DS1 (11738374_at) / Fold change /veh KIR2DL2 /// KIR2DL4 /// KIR2DL5A /// KIR2DL5B /// KIR2DS1 /// KIR2DS2 /// KIR2DS3 /// KIR2DS4 /// KIR3DL3 /// KIR3DL3 /// KIR3DS1 (11738374_at) / RFU C1QL1 (11718748_at) / Fold change /veh C1QL1 (11718748_at) / RFU TMPRSS4 (11747572_a_at) / Fold change /veh TMPRSS4 (11747572_a_at) / RFU HAMP (11756126_x_at) / Fold change /veh HAMP (11756126_x_at) / RFU RNFT2 (11725882_a_at) / Fold change /veh RNFT2 (11725882_a_at) / RFU NR4A2 (11747474_a_at) / Fold change /veh NR4A2 (11747474_a_at) / RFU ABCC12 (11746883_a_at) / Fold change /veh ABCC12 (11746883_a_at) / RFU TMEM136 (11760407_x_at) / Fold change /veh TMEM136 (11760407_x_at) / RFU CLDN22 /// WWC2 (11732394_at) / Fold change /veh CLDN22 /// WWC2 (11732394_at) / RFU HLA-DPB1 (11760878_x_at) / Fold change /veh HLA-DPB1 (11760878_x_at) / RFU SPINT1 (11716480_a_at) / Fold change /veh SPINT1 (11716480_a_at) / RFU GAP43 (11754022_s_at) / Fold change /veh GAP43 (11754022_s_at) / RFU A4GNT (11735810_at) / Fold change /veh A4GNT (11735810_at) / RFU PRB3 (11715151_x_at) / Fold change /veh PRB3 (11715151_x_at) / RFU TUBB4B (11761932_at) / Fold change /veh TUBB4B (11761932_at) / RFU CAPN14 (11732068_a_at) / Fold change /veh CAPN14 (11732068_a_at) / RFU TMCC2 (11721928_a_at) / Fold change /veh TMCC2 (11721928_a_at) / RFU IRGQ (11745062_a_at) / Fold change /veh IRGQ (11745062_a_at) / RFU FAM174B (11720279_a_at) / Fold change /veh FAM174B (11720279_a_at) / RFU TMPRSS4 (11748680_a_at) / Fold change /veh TMPRSS4 (11748680_a_at) / RFU FAM212B (11763350_a_at) / Fold change /veh FAM212B (11763350_a_at) / RFU PLEKHG5 (11743358_a_at) / Fold change /veh PLEKHG5 (11743358_a_at) / RFU ZSCAN30 (11745921_a_at) / Fold change /veh ZSCAN30 (11745921_a_at) / RFU CMKLR1 (11741424_a_at) / Fold change /veh CMKLR1 (11741424_a_at) / RFU LOC101060620 /// MAPK8IP1 (11723275_at) / Fold change /veh LOC101060620 /// MAPK8IP1 (11723275_at) / RFU SPTSSB (11747773_x_at) / Fold change /veh SPTSSB (11747773_x_at) / RFU PRSS12 (11739890_at) / Fold change /veh PRSS12 (11739890_at) / RFU BIN1 (11741810_x_at) / Fold change /veh BIN1 (11741810_x_at) / RFU WNT11 (11732464_a_at) / Fold change /veh WNT11 (11732464_a_at) / RFU C10orf10 (11716521_a_at) / Fold change /veh C10orf10 (11716521_a_at) / RFU C5orf56 (11738089_at) / Fold change /veh C5orf56 (11738089_at) / RFU CYB561 (11721691_x_at) / Fold change /veh CYB561 (11721691_x_at) / RFU ANKRD19P (11752326_a_at) / Fold change /veh ANKRD19P (11752326_a_at) / RFU OR2T12 /// OR2T33 /// OR2T8 (11738714_s_at) / Fold change /veh OR2T12 /// OR2T33 /// OR2T8 (11738714_s_at) / RFU VCAN (11748164_a_at) / Fold change /veh VCAN (11748164_a_at) / RFU JSRP1 (11732532_at) / Fold change /veh JSRP1 (11732532_at) / RFU KRTAP10-11 (11738290_x_at) / Fold change /veh KRTAP10-11 (11738290_x_at) / RFU MYO3A (11730013_a_at) / Fold change /veh MYO3A (11730013_a_at) / RFU EBF3 (11725865_a_at) / Fold change /veh EBF3 (11725865_a_at) / RFU CAMK2N1 (11719241_x_at) / Fold change /veh CAMK2N1 (11719241_x_at) / RFU C5orf56 (11738088_a_at) / Fold change /veh C5orf56 (11738088_a_at) / RFU OLFML3 (11715873_a_at) / Fold change /veh OLFML3 (11715873_a_at) / RFU LOC100653217 /// NTM (11731650_a_at) / Fold change /veh LOC100653217 /// NTM (11731650_a_at) / RFU MAPK11 (11762145_a_at) / Fold change /veh MAPK11 (11762145_a_at) / RFU FIZ1 (11724087_x_at) / Fold change /veh FIZ1 (11724087_x_at) / RFU OASL (11726364_x_at) / Fold change /veh OASL (11726364_x_at) / RFU SOX15 (11748057_x_at) / Fold change /veh SOX15 (11748057_x_at) / RFU CD79A (11719716_a_at) / Fold change /veh CD79A (11719716_a_at) / RFU HIST1H1D (11736915_at) / Fold change /veh HIST1H1D (11736915_at) / RFU CASKIN2 (11723855_a_at) / Fold change /veh CASKIN2 (11723855_a_at) / RFU LOC730098 (11760151_x_at) / Fold change /veh LOC730098 (11760151_x_at) / RFU OR4N2 (11742367_at) / Fold change /veh OR4N2 (11742367_at) / RFU PRRT2 (11749266_a_at) / Fold change /veh PRRT2 (11749266_a_at) / RFU SNX32 (11753110_a_at) / Fold change /veh SNX32 (11753110_a_at) / RFU CDHR5 (11726645_a_at) / Fold change /veh CDHR5 (11726645_a_at) / RFU RCAN1 (11760418_a_at) / Fold change /veh RCAN1 (11760418_a_at) / RFU FAM167A (11723789_a_at) / Fold change /veh FAM167A (11723789_a_at) / RFU FAM26E (11764081_at) / Fold change /veh FAM26E (11764081_at) / RFU ISYNA1 (11749810_s_at) / Fold change /veh ISYNA1 (11749810_s_at) / RFU ACY1 (11761880_at) / Fold change /veh ACY1 (11761880_at) / RFU 11764098_at / Fold change /veh 11764098_at / RFU SAMD14 (11745864_x_at) / Fold change /veh SAMD14 (11745864_x_at) / RFU NPB (11741838_a_at) / Fold change /veh NPB (11741838_a_at) / RFU TMPRSS6 (11731388_a_at) / Fold change /veh TMPRSS6 (11731388_a_at) / RFU KRTAP10-2 (11738614_at) / Fold change /veh KRTAP10-2 (11738614_at) / RFU ARHGAP8 /// PRR5-ARHGAP8 (11727945_x_at) / Fold change /veh ARHGAP8 /// PRR5-ARHGAP8 (11727945_x_at) / RFU KRTAP5-7 /// NADSYN1 (11734609_at) / Fold change /veh KRTAP5-7 /// NADSYN1 (11734609_at) / RFU RASL12 (11751679_a_at) / Fold change /veh RASL12 (11751679_a_at) / RFU CDKN2B (11736163_a_at) / Fold change /veh CDKN2B (11736163_a_at) / RFU PRF1 (11729649_at) / Fold change /veh PRF1 (11729649_at) / RFU, ZNF638 /// ZNF638-IT1 / Fold change vs veh, ZNF638 /// ZNF638-IT1 / RFU, PANK3 / Fold change vs veh, PANK3 / RFU, SH3YL1 / Fold change vs veh, SH3YL1 / RFU, ZEB2 / Fold change vs veh, ZEB2 / RFU, NRIP1 / Fold change vs veh, NRIP1 / RFU, PTTG1IP / Fold change vs veh, PTTG1IP / RFU, CAPN2 / Fold change vs veh, CAPN2 / RFU, MED14 / Fold change vs veh, MED14 / RFU, SNORA58 / Fold change vs veh, SNORA58 / RFU, C1orf63 / Fold change vs veh, C1orf63 / RFU, LRRFIP1 / Fold change vs veh, LRRFIP1 / RFU, NDUFAF7 / Fold change vs veh, NDUFAF7 / RFU, SLC12A2 / Fold change vs veh, SLC12A2 / RFU, IBTK / Fold change vs veh, IBTK / RFU, ESF1 / Fold change vs veh, ESF1 / Fold change vs veh, TMEM50B / RFU, TAOK1 / Fold change vs veh, TAOK1 / RFU, ACBD3 / Fold change vs veh, ACBD3 / RFU, TMA16 / Fold change vs veh, TMA16 / RFU, RWDD3 / Fold change vs veh, RWDD3 / RFU, BCAT1 / Fold change vs veh, BCAT1 / RFU, EDEM3 / Fold change vs veh, EDEM3 / RFU, TMEM33 / Fold change vs veh, TMEM33 / RFU, WDR75 / Fold change vs veh, WDR75 / RFU, AHCTF1 / Fold change vs veh, AHCTF1 / RFU, TFRC / Fold change vs veh, TFRC / RFU, ZDHHC17 / Fold change vs veh, ZDHHC17 / RFU, NOM1 / Fold change vs veh, NOM1 / RFU, ARL8B / Fold change vs veh, ARL8B / RFU, ZBTB11 / Fold change vs veh, ZBTB11 / RFU, TAMM41 / Fold change vs veh, TAMM41 / RFU, KIAA1704 /// LOC100996395 / Fold change vs veh, KIAA1704 /// LOC100996395 / RFU, ING1 / Fold change vs veh, ING1 / RFU, TRMT61B / Fold change vs veh, TRMT61B / RFU, FUBP3 / Fold change vs veh, FUBP3 / RFU, TP53 / Fold change vs veh, TP53 / RFU, TNKS2 / Fold change vs veh, TNKS2 / RFU, ZFP14 / Fold change vs veh, ZFP14 / RFU, ACTR2 / Fold change vs veh, ACTR2 / RFU, PPP3R1 / Fold change vs veh, PPP3R1 / RFU, PIK3R1 / Fold change vs veh, PIK3R1 / RFU, HNRNPA1 / Fold change vs veh, HNRNPA1 / RFU, RNF170 / Fold change vs veh, RNF170 / RFU, ZNF28 / Fold change vs veh, ZNF28 / RFU, RNGTT / Fold change vs veh, RNGTT / RFU, OGT / Fold change vs veh, OGT / RFU, BRD1 / Fold change vs veh, BRD1 / RFU, MARS / Fold change vs veh, MARS / RFU, ZNF655 / Fold change vs veh, ZNF655 / RFU, FAHD1 / Fold change vs veh, FAHD1 / RFU, BDP1 / Fold change vs veh, BDP1 / RFU, LRRCC1 / Fold change vs veh, LRRCC1 / RFU, ARID1A / Fold change vs veh, ARID1A / RFU, ZNF146 / Fold change vs veh, ZNF146 / RFU, ZNF330 / Fold change vs veh, ZNF330 / RFU, GPN3 / Fold change vs veh, GPN3 / RFU, C9orf123 / Fold change vs veh, C9orf123 / RFU, N4BP2L2 / Fold change vs veh, N4BP2L2 / RFU, ARFIP1 / Fold change vs veh, ARFIP1 / RFU, FAM179B / Fold change vs veh, FAM179B / RFU, BCL10 / Fold change vs veh, BCL10 / RFU, UHRF1BP1L / Fold change vs veh, UHRF1BP1L / RFU, BET1 / Fold change vs veh, BET1 / RFU, CNOT2 / Fold change vs veh, CNOT2 / RFU, ZNF268 / Fold change vs veh, ZNF268 / Fold change vs veh, ZNF507 / RFU, DGCR2 / Fold change vs veh, DGCR2 / RFU, WDSUB1 / Fold change vs veh, WDSUB1 / Fold change vs veh, HSP90B1 /// MIR3652 / RFU, ADSS / Fold change vs veh, ADSS / RFU, GK / Fold change vs veh, GK / RFU, ZNF148 / Fold change vs veh, ZNF148 / RFU, TAF9 / Fold change vs veh, TAF9 / RFU, SLC1A5 / Fold change vs veh, SLC1A5 / RFU, SLMO2 / Fold change vs veh, SLMO2 / RFU, ABCC4 / Fold change vs veh, ABCC4 / RFU, LOC101060439 /// RAP1B / Fold change vs veh, LOC101060439 /// RAP1B / RFU, RFX7 / Fold change vs veh, RFX7 / RFU, GTPBP10 / Fold change vs veh, GTPBP10 / RFU, CNEP1R1 / Fold change vs veh, CNEP1R1 / RFU, BIVM-ERCC5 /// ERCC5 / Fold change vs veh, BIVM-ERCC5 /// ERCC5 / RFU, ILF3 / Fold change vs veh, ILF3 / RFU 11762660_at / Fold change /veh 11762660_at / RFU VCAN (11757783_s_at) / Fold change /veh VCAN (11757783_s_at) / RFU DDX43 (11728927_at) / Fold change /veh DDX43 (11728927_at) / RFU KRT8 (11758188_x_at) / Fold change /veh KRT8 (11758188_x_at) / RFU NKD1 (11759106_at) / Fold change /veh NKD1 (11759106_at) / RFU SRD5A1 (11742802_a_at) / Fold change /veh SRD5A1 (11742802_a_at) / RFU TPSAB1 /// TPSB2 (11721975_s_at) / Fold change /veh TPSAB1 /// TPSB2 (11721975_s_at) / RFU GSTM3 (11746129_a_at) / Fold change /veh GSTM3 (11746129_a_at) / RFU IL23R (11737362_x_at) / Fold change /veh IL23R (11737362_x_at) / RFU TMEM51 (11727254_a_at) / Fold change /veh TMEM51 (11727254_a_at) / RFU PIWIL2 (11732686_x_at) / Fold change /veh PIWIL2 (11732686_x_at) / RFU ORM1 (11744905_x_at) / Fold change /veh ORM1 (11744905_x_at) / RFU CCDC152 (11743942_at) / Fold change /veh CCDC152 (11743942_at) / RFU ECM1 (11717891_a_at) / Fold change /veh ECM1 (11717891_a_at) / RFU IL23R (11748794_a_at) / Fold change /veh IL23R (11748794_a_at) / RFU TNFAIP8L3 (11732012_x_at) / Fold change /veh TNFAIP8L3 (11732012_x_at) / RFU MBOAT4 (11741988_at) / Fold change /veh MBOAT4 (11741988_at) / RFU 11764193_at / Fold change /veh 11764193_at / RFU TMEM53 (11763286_at) / Fold change /veh TMEM53 (11763286_at) / RFU MAGEB2 (11727129_at) / Fold change /veh MAGEB2 (11727129_at) / RFU TMEM200A (11744735_a_at) / Fold change /veh TMEM200A (11744735_a_at) / RFU CCDC152 (11751479_a_at) / Fold change /veh CCDC152 (11751479_a_at) / RFU FAM211A (11726209_a_at) / Fold change /veh FAM211A (11726209_a_at) / RFU RGS16 (11746705_a_at) / Fold change /veh RGS16 (11746705_a_at) / RFU VCAN (11755009_s_at) / Fold change /veh VCAN (11755009_s_at) / RFU RHOB (11743442_s_at) / Fold change /veh RHOB (11743442_s_at) / RFU RGS16 (11720943_a_at) / Fold change /veh RGS16 (11720943_a_at) / RFU RGS16 (11720944_at) / Fold change /veh RGS16 (11720944_at) / RFU, VPS4B / Fold change vs veh, VPS4B / RFU, CREB1 / Fold change vs veh, CREB1 / RFU, DNAJC13 / Fold change vs veh, DNAJC13 / RFU, GNAQ / Fold change vs veh, GNAQ / RFU, CDK5R1 / Fold change vs veh, CDK5R1 / RFU, ZRANB3 / Fold change vs veh, ZRANB3 / RFU, CUL4A / Fold change vs veh, CUL4A / RFU, CCNY / Fold change vs veh, CCNY / RFU, UFL1 / Fold change vs veh, UFL1 / RFU, COG3 / Fold change vs veh, COG3 / RFU, DIAPH2 / Fold change vs veh, DIAPH2 / RFU, SKA2 / Fold change vs veh, SKA2 / RFU, AFF3 / Fold change vs veh, AFF3 / RFU, LMF1 / Fold change vs veh, LMF1 / RFU, IPO11 / Fold change vs veh, IPO11 / RFU, DFFB / Fold change vs veh, DFFB / RFU, FOXP1 / Fold change vs veh, FOXP1 / RFU, CARD8 / Fold change vs veh, CARD8 / RFU, STRN3 / Fold change vs veh, STRN3 / RFU, ADK / Fold change vs veh, ADK / RFU, RASSF2 / Fold change vs veh, RASSF2 / RFU, WIPF1 / Fold change vs veh, WIPF1 / RFU, LARP1B / Fold change vs veh, LARP1B / RFU, RASA1 / Fold change vs veh, RASA1 / RFU, RB1 / Fold change vs veh, RB1 / RFU, PPFIA1 / Fold change vs veh, PPFIA1 / RFU, MAT2A / Fold change vs veh, MAT2A / RFU, CCT5 / Fold change vs veh, CCT5 / RFU, WDR92 / Fold change vs veh, WDR92 / RFU, CUX1 / Fold change vs veh, CUX1 / RFU, TTC7A / Fold change vs veh, TTC7A / RFU, TMEM135 / Fold change vs veh, TMEM135 / RFU, DEPTOR / Fold change vs veh, DEPTOR / RFU, CPM / Fold change vs veh, CPM / RFU, DNAJB6 / Fold change vs veh, DNAJB6 / RFU, CACNA2D3 / Fold change vs veh, CACNA2D3 / RFU, DTX4 / Fold change vs veh, DTX4 / RFU, TFCP2 / Fold change vs veh, TFCP2 / RFU, GMCL1 /// GMCL1P1 / Fold change vs veh, GMCL1 /// GMCL1P1 / RFU, AEBP2 / Fold change vs veh, AEBP2 / RFU, SNHG1 /// SNORD22 /// SNORD25 /// SNORD26 /// SNORD27 /// SNORD28 /// SNORD29 /// SNORD31 / Fold change vs veh, SNHG1 /// SNORD22 /// SNORD25 /// SNORD26 /// SNORD27 /// SNORD28 /// SNORD29 /// SNORD31 / Fold change (Aza/veh), C12orf56 (ProbeSet 11735607_a_at) / Fold change (ACY-1035/veh), C12orf56 (ProbeSet 11735607_a_at) / Fold change (Aza/veh), FGFR1OP (ProbeSet 11751329_s_at) / Fold change (ACY-1035/veh), FGFR1OP (ProbeSet 11751329_s_at) / Fold change (Aza/veh), VPS36 (ProbeSet 11739960_a_at) / Fold change (ACY-1035/veh), VPS36 (ProbeSet 11739960_a_at) / RFU SYPL1 (11715823_x_at) / Fold change /veh SYPL1 (11715823_x_at) / RFU IGFBP7 (11715501_s_at) / Fold change /veh IGFBP7 (11715501_s_at) / RFU REEP3 (11722064_at) / Fold change /veh REEP3 (11722064_at) / RFU IGLL1 (11728026_x_at) / Fold change /veh IGLL1 (11728026_x_at): dose or concentration left out as unconfirmed
Settings: ProbeSet 11716844_s_at; LIST D

SMILES: Nc1ccc(-c2cccs2)cc1NC(=O)c1ccc2c(c1)cc(C1CC1)n2CCN1CCOCC1 [ACY-1035]
- RFU, DNAJC13: 129.69 RFU
